pIC50: −log10 of the molar value. Counter-ions that a name gives are not always drawn. Some results are limits rather than exact numbers.

As a reminder, the pIC50 is the IC50 on a negative log10 scale, so that one unit is a factor of ten.

This test has as its target T1, dN-SARM1 protein (Homo sapiens, UniProt Q6SZW1).
T1 construct: the N-terminal mitochondrial localization signal peptide of SARM1 was removed
T1 sequence (Q6SZW1 28-724): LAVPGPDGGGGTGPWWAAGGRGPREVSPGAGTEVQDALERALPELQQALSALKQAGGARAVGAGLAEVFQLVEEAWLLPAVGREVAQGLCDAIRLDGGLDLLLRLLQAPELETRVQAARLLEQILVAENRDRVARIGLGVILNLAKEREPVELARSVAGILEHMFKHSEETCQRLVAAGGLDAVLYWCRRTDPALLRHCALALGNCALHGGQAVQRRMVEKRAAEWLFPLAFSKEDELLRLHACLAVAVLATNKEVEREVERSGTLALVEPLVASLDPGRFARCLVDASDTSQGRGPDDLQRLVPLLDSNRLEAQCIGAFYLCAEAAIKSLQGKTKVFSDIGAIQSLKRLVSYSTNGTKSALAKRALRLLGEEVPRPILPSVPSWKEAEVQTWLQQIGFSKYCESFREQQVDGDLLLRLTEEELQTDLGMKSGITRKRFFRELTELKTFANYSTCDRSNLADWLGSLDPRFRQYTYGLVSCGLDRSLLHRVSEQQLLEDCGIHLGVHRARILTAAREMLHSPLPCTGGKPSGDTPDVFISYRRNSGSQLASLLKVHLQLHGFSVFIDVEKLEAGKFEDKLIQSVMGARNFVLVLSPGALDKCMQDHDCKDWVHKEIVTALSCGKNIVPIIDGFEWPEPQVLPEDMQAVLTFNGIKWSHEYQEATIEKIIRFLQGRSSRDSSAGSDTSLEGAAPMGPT
Put plainly: In vitro biochemical assay for inhibiting SARM1 enzymatic activity (IC50), PC6 fluorescence method. As to conditions: 50 μM NAD, 50 μM PC6, 50 μM NMN activator. How it is done:
200 μM compound was first added to a solution of 0.05 μg/ml dN-SARM1 in 50 mM Tris-HCl (pH 7.5). Half of the mixture was added to an equal volume of a solution of 0.05 μg/ml dN-SARM1 in 50 mM Tris-HCl (pH 7.5) and mixed. The drug was diluted 6 times in this manner, with the final concentrations being 200, 100, 50, 25, 12.5, 6.25, 3.125 μM, or 200, 50, 12.5, 3.125, 0.78, 0.195, 0.049 μM, respectively. The protein without inhibitors added, being used as control group, was incubated at room temperature for 10 minutes.
50 μM NAD, 50 μM PC6 as substrate and 50 μM NMN as activator were added to the dN-SARM1 protein incubated with the inhibitor and reacted for 30 minutes at room temperature. The concentration of each component was the final concentration in the reaction system.
During the reaction, PC6 fluorescence spectrum dynamics were detected by a microplate reader, wherein the excitation wavelength and emission wavelength for detection were 390 nm and 520 nm, respectively. Finally, the reaction rate was used to express the activity of the protein, and the half inhibitory concentration was calculated. The higher the reaction rate, the stronger the protein activity, and the lower the inhibitory efficiency of the compound.
The dose curve of compounds inhibiting SARM1 enzymatic activity was determined using the above method.
Turning to `c1cc(-c2cnc3ccc(-n4cccn4)cn23)c2cc[nH]c2c1` [Compound 202, 3-(1H-indol-4-yl)-6-(1H-pyrazol-1-yl)imidazo[1,2-a]pyridine], the pIC50 is 5.00 to 6.00.
For `Ic1cnc2ccc(-n3cccc3)cn12` [Compound 203] the value was over 6.00.
For `Nc1cccc(-c2cnc3ccc(N4CCCC4=O)cn23)c1` [Compound 204] the value was 5.00 to 6.00.
For `O=C(Nc1cccc(-c2cnc3ccc(-n4cccn4)cn23)c1)C1CCOCC1` [Compound 207] the value was 5.00 to 6.00.
In turn, `CN(C(=O)OC(C)(C)C)c1ccc2ncc(-c3cncc4[nH]cc(I)c34)n2c1` [Compound 208, tert-butyl (3-(3-iodo-1H-pyrrolo[2,3-c]pyridin-4-yl)imidazo[1,2-a]pyridin-6-yl)(methyl) carbamate] showed a pIC50 of 5.00 to 6.00.
Turning to `CNc1ccc2ncc(-c3cncc4[nH]cc(I)c34)n2c1` [Compound 209], the pIC50 is 5.00 to 6.00.
Turning to `CNc1ccc2ncc(-c3cccc4c(I)n[nH]c34)n2c1` [Compound 210, 3-(3-iodo-1H-indazol-7-yl)-N-methylimidazol[1,2-a]pyridin-6-amine hydrochloride], the pIC50 was 5.00 to 6.00.
Turning to `CC(C)(C)OC(=O)N(CCCc1ccccc1)c1ccc2ncc(-c3cccc(NC(=O)C4CCOCC4)c3)n2c1` [Compound 217], the pIC50 is 5.00 to 6.00.
Turning to `O=C(COCCOCc1ccccc1)Nc1cccc(-c2cnc3ccc(NCCCc4ccccc4)cn23)c1` [Compound 218], the pIC50 is 5.00 to 6.00.
For the compound `O=C(Cc1ccc(Cl)cc1)Nc1ccn2c(-c3ccncc3)cnc2c1` [Compound 222], the pIC50 was 5.00 to 6.00.
`CN(C)c1ccc2ncc(-c3cccc4c3CNC4=O)n2c1` [Compound 223] showed a negative-log IC50 (pIC50) of over 6.00.
The same measure for `c1cc(-c2cnc3ccc(N4CCOCC4)cn23)cc(N2CCOCC2)c1` [Compound 226]: 5.00 to 6.00; for `COCCOCCNc1cccc(-c2cnc3ccc(N4CCOCC4)cn23)c1` [Compound 229]: 5.00 to 6.00.
The same measure for `COCCNc1cccc(-c2cnc3ccc(N4CCOCC4)cn23)c1` [Compound 232]: 5.00 to 6.00; for `COc1ccc2ncc(-c3cccc4c3CNC4=O)n2c1` [Compound 235]: 5.00 to 6.00; for `CNc1ccc2ncc(-c3cccc(CNC(=O)C4CCOCC4)c3)n2c1` [Compound 242]: over 6.00.
The compound `CNc1ccc2ncc(-c3cccc(NC(=O)COCc4ccccc4)c3)n2c1` [Compound 250] had a pIC50 of 5.00 to 6.00.
As for `CNc1ccc2ncc(-c3cccc4c3CNC4=O)n2c1` [Compound 257], the pIC50 was over 6.00.
In turn, `CNc1ccc2ncc(-c3cncc4[nH]ccc34)n2c1` [Compound 258] gave a pIC50 of over 6.00.
As for `CNc1ccc2ncc(-c3ccncc3F)n2c1` [Compound 261], the pIC50 is over 6.00.
The compound `CN(C(=O)OC(C)(C)C)c1ccc2ncc(-c3cccc4cnccc34)n2c1` [Compound 263] had a pIC50 of over 6.00.
Turning to `CNc1ccc2ncc(-c3cccc4cnccc34)n2c1` [Compound 264], the pIC50 is over 6.00.
`CN(C(=O)OC(C)(C)C)c1ccc2ncc(-c3ccc4c(c3)CNC4=O)n2c1` [Compound 265] gave a negative-log IC50 (pIC50) of over 6.00.
`CNc1ccc2ncc(-c3ccc4c(c3)CNC4=O)n2c1` [Compound 266] gave a pIC50 of 5.00 to 6.00.
In turn, `CN(C(=O)OC(C)(C)C)c1ccc2ncc(-c3cccc4cnn(C)c34)n2c1` [Compound 267] had a pIC50 of over 6.00.
For the compound `CN(C(=O)OC(C)(C)C)c1ccc2ncc(-c3cncc4ccccc34)n2c1` [Compound 268], the pIC50 was over 6.00.
For `CNc1ccc2ncc(-c3cncc4ccccc34)n2c1` [Compound 269] the value was 5.00 to 6.00.
Consider `CN(C(=O)OC(C)(C)C)c1ccc2ncc(-c3ccc4ccncc4c3)n2c1` [Compound 270], for which the pIC50 was over 6.00.
The same measure for `CNc1ccc2ncc(-c3ccc4ccncc4c3)n2c1` [Compound 271]: over 6.00; for `CN(C(=O)OC(C)(C)C)c1ccc2ncc(-c3cncnc3)n2c1` [Compound 283]: 5.00 to 6.00; for `CNc1ccc2ncc(-c3ccc4cn[nH]c4c3)n2c1` [Compound 284]: 5.00 to 6.00.
In turn, `CN(C(=O)OC(C)(C)C)c1ccc2ncc(-c3cccc4c3ccn4C)n2c1` [Compound 285] had a pIC50 of 5.00 to 6.00.
`CN1Cc2c(cccc2-c2cnc3ccc(N(C)C(=O)OC(C)(C)C)cn23)C1=O` [Compound 286] gave a pIC50 of 5.00 to 6.00.
For `CNc1ccc2ncc(-c3cccc4c3CN(CCOC)C4=O)n2c1` [Compound 290] the value was 5.00 to 6.00; for `CN(C)CCN1Cc2c(cccc2-c2cnc3ccc(N(C)C(=O)OC(C)(C)C)cn23)C1=O` [Compound 291], 5.00 to 6.00; for `CNc1ccc2ncc(-c3cccc4c3CN(CCN(C)C)C4=O)n2c1` [Compound 292], 5.00 to 6.00.
`CN(C(=O)OC(C)(C)C)c1ccc2ncc(-c3ccnc4c3ccn4C)n2c1` [Compound 293] had a pIC50 of over 6.00.
The compound `CNc1ccc2ncc(-c3ccnc4c3ccn4C)n2c1` [Compound 294] had a pIC50 of 5.00 to 6.00.
For `CN(C(=O)OC(C)(C)C)c1ccc2ncc(-c3cc4ccn(C)c4cn3)n2c1` [Compound 295] the value was 5.00 to 6.00; for `CNc1ccc2ncc(-c3cccc4c3CC(=O)N4C)n2c1` [Compound 296], 5.00 to 6.00; for `CN(C(=O)OC(C)(C)C)c1ccc2ncc(-c3ccc4cc[nH]c4n3)n2c1` [Compound 297], 5.00 to 6.00.
The same measure for `CNc1ccc2ncc(-c3cccc4c3CC(=O)N4)n2c1` [Compound 298]: 5.00 to 6.00; for `CN(C(=O)C(C)(C)C)c1ccc2ncc(-c3cccc(N)c3)n2c1` [Compound 302]: 5.00 to 6.00.
The same measure for `CC(C)(C)C(=O)Nc1ccc2ncc(I)n2c1` [Compound 304]: 5.00 to 6.00.
Take `CN(C(=O)C1CC1)c1ccc2ncc(I)n2c1` [Compound 305]: the negative-log IC50 (pIC50) is over 6.00.
In turn, `CN(C(=O)C1CC1)c1ccc2ncc(-c3cccc(N)c3)n2c1` [Compound 306] showed a negative-log IC50 (pIC50) of over 6.00.
The same measure for `COC(=O)c1cccc(-c2cnc3ccc(N(C)C(C)=O)cn23)c1` [Compound 308]: 5.00 to 6.00; for `CC(=O)N(C)c1ccc2ncc(-c3cccc(C(=O)NC4CCOCC4)c3)n2c1` [Compound 309]: 5.00 to 6.00.
`COCCOCCNC(=O)c1cccc(-c2cnc3ccc(N(C)C(C)=O)cn23)c1` [Compound 310] had a pIC50 of 5.00 to 6.00.
Compound `CN(C(=O)OC(C)(C)C)c1ccc2ncc(C3CCCc4ncccc43)n2c1` (stereo not drawn) [Compound 311] gave a pIC50 of over 6.00.
On to `CNc1ccc2ncc(C3CCCc4ncccc43)n2c1` (stereo not drawn) [Compound 312], for which the negative logarithm of the IC50 (pIC50) was 5.00 to 6.00.

The record behind these values is patent US20240368168A1, “SARM1 ENZYME ACTIVITY INHIBITOR AND APPLICATION THEREOF” (ARTIVILA BIOPHARMA, priority 2021, published 2024).
